# From patent publication US20240294659A1, “Method and Compositions for Inducing Differentiation of Myeloid Derived Suppressor Cell to Treat Cancer and Infectious Diseases” (OSE Immunotherapeutics, priority 2014, published 2024)
# Legend:
# rat MDSC = assay: Rat MDSC two-day culture with anti-SIRPα antibody, with or without GM-CSF, phenotype by flow cytometry; assay type: cell-based; conditions: two days, GM-CSF 10 ng/ml with or without anti-SIRPα 10 μg/ml (FIG. 4)
# Source text: Human blood MDSC were characterized and sorted by flow cytometry as follow: CD11b^+CD33^+HLA-DR^low/−CD14^+CD15^− for Mo-MDSC and CD11b^+CD33^+HLA-DR^− CD14^− CD15+ for PMN-MDSC. Rat blood and spleen MDSC were characterized and sorted by flow cytometry as CD11b^+MHC ClassII-NKRP1^int (both Mo-MDSC and PMN-MDSC was included in this phenotype). Mouse MDSC were characterize as follow: CD11b^+MHC Class II-Ly6C^high Ly6G^− for Mo-MDSC and CD11b^+MHC Class II-Ly6C^+Ly6G^+ for PMN-MDSC.
# MDSC were purified by flow cytometry according to previously described phenotypes. Purity of cells sorted by flow cytometry was higher than 99%. Freshly purified MDSC were then seeded at 50×10^3 cells/well in 96-well flat-bottomed microtiter plates and cultured for two days in RPMI-1640 medium (supplemented with 2 mM L-glutamine, 100 U/ml penicillin, 0.1 mg/ml streptomycin, 10% heat-inactivated fetal calf serum, 1% nonessential amino acids, 5 mM HEPES, 1 mM sodium pyruvate, and 1 μM 2-mercaptoethanol) and with irrelevant control antibody or anti-SIRPα monoclonal antibody (clone SE7C2 (Santa Cruz Biotechnology) and SE5A5 (Biolegend) for human MDSC or clone ED9 (AbD Serotec) for rat MDSC) at 10 μg/ml. In a different setting, recombinant GM-CSF (10 ng/ml) was also added to force the macrophages/dendritic cells differentiation. […]
# [1] = test system: Hepa1.6 mouse hepatoma cells; assay: Hepatocellular carcinoma mice model; assay type: in vivo; conditions: Sorafenib 40 mg/kg daily oral gavage, day 0 to day 28 (FIG. 10)
# Procedure: Eight-weeks-old C57B1/6J male mice received 2.5×10^6Hepa1.6 mouse hepatoma cells in 100 μL through the portal vein, as previously described (Gauttier et al., 2014). Four and eight days after tumour inoculation, mice were injected intraperitoneally with 100 μg of rat anti-CD137 mAb (4-1BB mAb), or with 300 μg of anti-mouse SIRPα monoclonal antibody (clone P84 from Merck Millipore) or both antibodies or an irrelevant control antibody (clone 3G8) 3 times/week for 4 weeks (FIG. 17A) or with 200 μg of the anti-PD-LI mAb (clone 10F-9G2 from BioXCell) or received both antibodies (anti-SIRPα+anti-PDL1) for 4 weeks (FIG. 17B). Sorafenib (Nexavar-Bayer) treated mice received daily 100 μl oral gavage of 40 mg/kg from day 0 to day 28 (FIG. 10). The overall survival was analyzed. Some mice were sacrificed at day 14 after tumor inoculation for leukocytes tumor infiltration quantification and characterization by isolation of non-parenchymal cells of the liver by a Percoll gradient and FACS analysis.
Molecule,"differentiation of MDSC (MHC Class II, CD103, CD11b, CD80) (rat MDSC)",mice rescued (overall survival) [1] [%]
GM-CSF: recombinant GM-CSF added to force the macrophages/dendritic cells differentiation,induce the differentiation of MDSC in mature MHC Class II^+ myeloids cells,–
CNC(=O)c1cc(Oc2ccc(NC(=O)Nc3ccc(Cl)c(C(F)(F)F)c3)cc2)ccn1 [Sorafenib],–,60
